Tests used:
Assay type in all cases: in vivo
Conditions in all cases: 14 DAA
Winter Wheat “Hereward” = test: Test 1B glasshouse assay, post-emergence herbicidal activity against cereal crops
Description: (§1) Biological Example 1B tests the herbicidal activity of“technical” compounds (i.e. compounds not previously formulated before the test), as the herbicides under test.
(§2) An “instant formulation”, known as the “IF50”, containing 50 g/liter (i.e. 5% w/v) of the “technical” (i.e. unformulated) active ingredient (i.e. the herbicide under test), is prepared by dissolving the active ingredient in a mixture of organic solvents and emulsifier, details of which are provided in the Table below.
(§3) This IF50 is mixed with a small, variable amount of acetone to aid dissolution, before addition of a 0.5% v/v aqueous solution of the adjuvant Adigor™ (an adjuvant containing rapeseed oil methyl ester, ethoxylated alcohols, and a mixture of heavy aromatic hydrocarbons, e.g. available from Syngenta), as the aqueous diluent, to form an aqueous spray solution which contains a predetermined concentration of the active ingredient (which varies depending on the application rate of the active ingredient to the plants) and 0.5% v/v of the adjuvant Adigor™. This aqueous spray solution is suitable for spraying onto plants.
(§4) Seeds of a variety of test species are sown in standard soil in pots. After cultivation for 14 days under controlled conditions in a glasshouse (at 22/16° C., day/night; 16 hours light; 65% humidity), the plants are sprayed post-emergence with the above-mentioned aqueous spray solution containing inter alia the “technical” active ingredient (i.e. the herbicide under test) and the adjuvant Adigor™.
(§5) The test plants are then grown on under controlled conditions in the glasshouse (at 22/16° C., day/night; 16 hours light; 65% humidity) and are watered twice daily. 14 days after application of the test herbicide, the test is evaluated visually for percentage phytotoxicity to the plant (where 100%=total damage to plant; 0%=no damage to plant).
(§6) More specifically, post-emergence herbicidal activity (phytotoxicity) data, on certain tested grassy monocotyledonous weeds (and/or plants of the type Gramineae) and cereal crops in the glasshouse, are measured 14 days after application of the herbicide (14 DAA), typically for inter alia one or more of the following application rates: • (a) a post-emergence application rate of 60 g/ha of the test herbicide with or without 50 g/ha of cloquintocet-mexyl safener, and • (b) a post-emergence application rate of 90 g/ha of the test herbicide with 50 g/ha of cloquintocet-mexyl safener, and • (c) a post-emergence application rate of 120 g/ha of the test herbicide with 50 g/ha of cloquintocet-mexyl safener.
(§7) The cloquintocet-mexyl, when used, is present in the formulation containing the herbicide under test dissolved in acetone plus IF50.
(§8) The range of herbicide application rates tested sometimes includes application rates other than those shown above, and the rates can vary depending on the herbicide under test.
(§9) Herbicidal activity (phytotoxicity) is evaluated visually, and an assessed percentage phytotoxicity score is given for each herbicidal application on each plant species (with 100%=total damage to plant; 0%=no damage to plant; the assessment is recorded in increments of 1%). Two replicates are made for each experiment, and the mean herbicidal activity (phytotoxicity) data is reported.

Spring Wheat “Teal” = test: as above
Description: as §1, §2, §3, §4, §5, §6, §7, §8, §9

[1] = tested on: Spring Barley “Harrington”; test: as above
Description: as §1, §2, §3, §4, §5, §6, §7, §8, §9

Winter Barley “Suzuka” = test: as above
Description: as §1, §2, §3, §4, §5, §6, §7, §8, §9

Setaria viridis (SETVI) = test: Test 1B glasshouse assay, post-emergence herbicidal activity against grassy weeds
Description: as §1, §2, §3, §4, §5, §6, §7, §8, §9
(§10) For compounds A34, A98, A99, A87, A100, A101, A89, A120, A120A, A120B, A23, A127, A128, A89, A112 and A113 the tested weeds were as follows: Avena fatua (AVEFA), Lolium multiflorum (LOLMU), Setaria viridis (SETVI), Poa annua (POAAN), Alopecurus myosuroides (ALOMY). All five of these are grassy monocotyledonous weeds. Except for SETVI, these are all “cool-season” grassy monocotyledonous weeds.

[2] = tested on: Alopecurus myosuroides (ALOMY); test: as above
Description: as §1, §2, §3, §4, §5, §6, §7, §8, §9, §10

[3] = tested on: Lolium multiflorum (LOLMU); test: as above
Description: as §1, §2, §3, §4, §5, §6, §7, §8, §9, §10

Avena fatua (AVEFA) = test: as above
Description: as §1, §2, §3, §4, §5, §6, §7, §8, §9, §10

Poa annua (POAAN) = test: as above
Description: as §1, §2, §3, §4, §5, §6, §7, §8, §9, §10

[4] = 60 g/ha herbicide, 0 g/ha cloquintocet-mexyl, test result no. 1 (T1)
[5] = 60 g/ha herbicide, 50 g/ha cloquintocet-mexyl, test result no. 1 (T1)
[6] = 60 g/ha herbicide, 50 g/ha cloquintocet-mexyl, test result no. 2 (T2)
[7] = 90 g/ha herbicide, 50 g/ha cloquintocet-mexyl, test result no. 2 (T2)
[8] = 120 g/ha herbicide, 50 g/ha cloquintocet-mexyl, test result no. 2 (T2)
[9] = 30 g/ha herbicide, 50 g/ha cloquintocet-mexyl
[10] = 45 g/ha herbicide, 50 g/ha cloquintocet-mexyl
[11] = 60 g/ha herbicide, 0 g/ha cloquintocet-mexyl
[12] = 60 g/ha herbicide, 50 g/ha cloquintocet-mexyl

Cc1cc(-n2cc(Cl)cn2)cc(C)c1C1C(=O)C[C@H](CCNC(=O)c2ccccn2)C1=O (stereo partly drawn) [Compound A99]
Post-emergence herbicidal activity against cereal crops, percentage phytotoxicity, Winter Wheat “Hereward” (Winter Wheat “Hereward”; [4]): 0 (T1) % | Post-emergence herbicidal activity against cereal crops, percentage phytotoxicity, Winter Wheat “Hereward” (Winter Wheat “Hereward”; [5]): 1 (T1); % | Post-emergence herbicidal activity against cereal crops, percentage phytotoxicity, Winter Wheat “Hereward” (Winter Wheat “Hereward”; [6]): 0 (T2) % | Post-emergence herbicidal activity against cereal crops, percentage phytotoxicity, Winter Wheat “Hereward” (Winter Wheat “Hereward”; [7]): 0 (T2) % | Post-emergence herbicidal activity against cereal crops, percentage phytotoxicity, Winter Wheat “Hereward” (Winter Wheat “Hereward”; [8]): 8 (T2) % | Post-emergence herbicidal activity against cereal crops, percentage phytotoxicity, Spring Wheat “Teal” (Spring Wheat “Teal”; [4]): 2 (T1) % | Post-emergence herbicidal activity against cereal crops, percentage phytotoxicity, Spring Wheat “Teal” (Spring Wheat “Teal”; [5]): 1 (T1); % | Post-emergence herbicidal activity against cereal crops, percentage phytotoxicity, Spring Wheat “Teal” (Spring Wheat “Teal”; [6]): 5 (T2) % | Post-emergence herbicidal activity against cereal crops, percentage phytotoxicity, Spring Wheat “Teal” (Spring Wheat “Teal”; [7]): 5 (T2) % | Post-emergence herbicidal activity against cereal crops, percentage phytotoxicity, Spring Wheat “Teal” (Spring Wheat “Teal”; [8]): 8 (T2) % | Post-emergence herbicidal activity against cereal crops, percentage phytotoxicity, Spring Barley “Harrington” [1, 4]: 15 (T1) % | Post-emergence herbicidal activity against cereal crops, percentage phytotoxicity, Spring Barley “Harrington” [1, 5]: 3 (T1); % | Post-emergence herbicidal activity against cereal crops, percentage phytotoxicity, Spring Barley “Harrington” [1, 6]: 3 (T2) % | Post-emergence herbicidal activity against cereal crops, percentage phytotoxicity, Spring Barley “Harrington” [1, 7]: 5 (T2) % | Post-emergence herbicidal activity against cereal crops, percentage phytotoxicity, Spring Barley “Harrington” [1, 8]: 8 (T2) % | Post-emergence herbicidal activity against cereal crops, percentage phytotoxicity, Winter Barley “Suzuka” (Winter Barley “Suzuka”; [4]): 60 (T1) % | Post-emergence herbicidal activity against cereal crops, percentage phytotoxicity, Winter Barley “Suzuka” (Winter Barley “Suzuka”; [5]): 15 (T1); % | Post-emergence herbicidal activity against cereal crops, percentage phytotoxicity, Winter Barley “Suzuka” (Winter Barley “Suzuka”; [6]): 14 (T2) % | Post-emergence herbicidal activity against cereal crops, percentage phytotoxicity, Winter Barley “Suzuka” (Winter Barley “Suzuka”; [7]): 35 (T2) % | Post-emergence herbicidal activity against cereal crops, percentage phytotoxicity, Winter Barley “Suzuka” (Winter Barley “Suzuka”; [8]): 38 (T2) % | Post-emergence herbicidal activity, percentage phytotoxicity, SETVI (Setaria viridis (SETVI); [4]): 10 (T1) % | Post-emergence herbicidal activity, percentage phytotoxicity, SETVI (Setaria viridis (SETVI); [5]): 8 (T1); % | Post-emergence herbicidal activity, percentage phytotoxicity, SETVI (Setaria viridis (SETVI); [6]): 33 (T2) % | Post-emergence herbicidal activity, percentage phytotoxicity, SETVI (Setaria viridis (SETVI); [7]): 68 (T2) % | Post-emergence herbicidal activity, percentage phytotoxicity, SETVI (Setaria viridis (SETVI); [8]): 75 (T2) % | Post-emergence herbicidal activity, percentage phytotoxicity, ALOMY [2, 4]: 50 (T1) % | Post-emergence herbicidal activity, percentage phytotoxicity, ALOMY [2, 5]: 35 (T1); % | Post-emergence herbicidal activity, percentage phytotoxicity, ALOMY [2, 6]: 38 (T2) % | Post-emergence herbicidal activity, percentage phytotoxicity, ALOMY [2, 7]: 58 (T2) % | Post-emergence herbicidal activity, percentage phytotoxicity, ALOMY [2, 8]: 73 (T2) % | Post-emergence herbicidal activity, percentage phytotoxicity, LOLMU [3, 4]: 35 (T1) % | Post-emergence herbicidal activity, percentage phytotoxicity, LOLMU [3, 5]: 35 (T1); % | Post-emergence herbicidal activity, percentage phytotoxicity, LOLMU [3, 6]: 55 (T2) % | Post-emergence herbicidal activity, percentage phytotoxicity, LOLMU [3, 7]: 65 (T2) % | Post-emergence herbicidal activity, percentage phytotoxicity, LOLMU [3, 8]: 78 (T2) % | Post-emergence herbicidal activity, percentage phytotoxicity, AVEFA (Avena fatua (AVEFA); [4]): 50 (T1) % | Post-emergence herbicidal activity, percentage phytotoxicity, AVEFA (Avena fatua (AVEFA); [5]): 40 (T1); % | Post-emergence herbicidal activity, percentage phytotoxicity, AVEFA (Avena fatua (AVEFA); [6]): 48 (T2) % | Post-emergence herbicidal activity, percentage phytotoxicity, AVEFA (Avena fatua (AVEFA); [7]): 60 (T2) % | Post-emergence herbicidal activity, percentage phytotoxicity, AVEFA (Avena fatua (AVEFA); [8]): 78 (T2) % | Post-emergence herbicidal activity, percentage phytotoxicity, POAAN (Poa annua (POAAN); [4]): 70 (T1) % | Post-emergence herbicidal activity, percentage phytotoxicity, POAAN (Poa annua (POAAN); [5]): 73 (T1); % | Post-emergence herbicidal activity, percentage phytotoxicity, POAAN (Poa annua (POAAN); [6]): 70 (T2) % | Post-emergence herbicidal activity, percentage phytotoxicity, POAAN (Poa annua (POAAN); [7]): 73 (T2) % | Post-emergence herbicidal activity, percentage phytotoxicity, POAAN (Poa annua (POAAN); [8]): 75 (T2) %

CCc1cc(-n2cc(Cl)cn2)cc(C)c1C1C(=O)C[C@H](CCNC(=O)c2ccccn2)C1=O (stereo partly drawn) [Compound A101]
Post-emergence herbicidal activity against cereal crops, percentage phytotoxicity, Winter Wheat “Hereward” (Winter Wheat “Hereward”; [9]): 18% | Post-emergence herbicidal activity against cereal crops, percentage phytotoxicity, Winter Wheat “Hereward” (Winter Wheat “Hereward”; [10]): 23% | Post-emergence herbicidal activity against cereal crops, percentage phytotoxicity, Winter Wheat “Hereward” (Winter Wheat “Hereward”; [11]): 43% | Post-emergence herbicidal activity against cereal crops, percentage phytotoxicity, Winter Wheat “Hereward” (Winter Wheat “Hereward”; [12]): 38% | Post-emergence herbicidal activity against cereal crops, percentage phytotoxicity, Spring Wheat “Teal” (Spring Wheat “Teal”; [9]): 10% | Post-emergence herbicidal activity against cereal crops, percentage phytotoxicity, Spring Wheat “Teal” (Spring Wheat “Teal”; [10]): 13% | Post-emergence herbicidal activity against cereal crops, percentage phytotoxicity, Spring Wheat “Teal” (Spring Wheat “Teal”; [11]): 48% | Post-emergence herbicidal activity against cereal crops, percentage phytotoxicity, Spring Wheat “Teal” (Spring Wheat “Teal”; [12]): 18% | Post-emergence herbicidal activity against cereal crops, percentage phytotoxicity, Spring Barley “Harrington” [1, 9]: 18% | Post-emergence herbicidal activity against cereal crops, percentage phytotoxicity, Spring Barley “Harrington” [1, 10]: 18% | Post-emergence herbicidal activity against cereal crops, percentage phytotoxicity, Spring Barley “Harrington” [1, 11]: 48% | Post-emergence herbicidal activity against cereal crops, percentage phytotoxicity, Spring Barley “Harrington” [1, 12]: 23% | Post-emergence herbicidal activity against cereal crops, percentage phytotoxicity, Winter Barley “Suzuka” (Winter Barley “Suzuka”; [9]): 23% | Post-emergence herbicidal activity against cereal crops, percentage phytotoxicity, Winter Barley “Suzuka” (Winter Barley “Suzuka”; [10]): 23% | Post-emergence herbicidal activity against cereal crops, percentage phytotoxicity, Winter Barley “Suzuka” (Winter Barley “Suzuka”; [11]): 75% | Post-emergence herbicidal activity against cereal crops, percentage phytotoxicity, Winter Barley “Suzuka” (Winter Barley “Suzuka”; [12]): 40% | Post-emergence herbicidal activity, percentage phytotoxicity, SETVI (Setaria viridis (SETVI); [9]): 15% | Post-emergence herbicidal activity, percentage phytotoxicity, SETVI (Setaria viridis (SETVI); [10]): 35% | Post-emergence herbicidal activity, percentage phytotoxicity, SETVI (Setaria viridis (SETVI); [11]): 53% | Post-emergence herbicidal activity, percentage phytotoxicity, SETVI (Setaria viridis (SETVI); [12]): 53% | Post-emergence herbicidal activity, percentage phytotoxicity, ALOMY [2, 9]: 25% | Post-emergence herbicidal activity, percentage phytotoxicity, ALOMY [2, 10]: 43% | Post-emergence herbicidal activity, percentage phytotoxicity, ALOMY [2, 11]: 55% | Post-emergence herbicidal activity, percentage phytotoxicity, ALOMY [2, 12]: 55% | Post-emergence herbicidal activity, percentage phytotoxicity, LOLMU [3, 9]: 68% | Post-emergence herbicidal activity, percentage phytotoxicity, LOLMU [3, 10]: 83% | Post-emergence herbicidal activity, percentage phytotoxicity, LOLMU [3, 11]: 88% | Post-emergence herbicidal activity, percentage phytotoxicity, LOLMU [3, 12]: 83% | Post-emergence herbicidal activity, percentage phytotoxicity, AVEFA (Avena fatua (AVEFA); [9]): 73% | Post-emergence herbicidal activity, percentage phytotoxicity, AVEFA (Avena fatua (AVEFA); [10]): 88% | Post-emergence herbicidal activity, percentage phytotoxicity, AVEFA (Avena fatua (AVEFA); [11]): 90% | Post-emergence herbicidal activity, percentage phytotoxicity, AVEFA (Avena fatua (AVEFA); [12]): 88% | Post-emergence herbicidal activity, percentage phytotoxicity, POAAN (Poa annua (POAAN); [9]): 5% | Post-emergence herbicidal activity, percentage phytotoxicity, POAAN (Poa annua (POAAN); [10]): 15% | Post-emergence herbicidal activity, percentage phytotoxicity, POAAN (Poa annua (POAAN); [11]): 48% | Post-emergence herbicidal activity, percentage phytotoxicity, POAAN (Poa annua (POAAN); [12]): 38%

Source: patent US9808003B2, “Herbicidally active 2-(substituted-phenyl)-cyclopentane-1,3-dione compounds and derivatives thereof” (Syngenta Limited, priority 2013, dated 2017)
